Data taken from article PMC7469199, “Immunosuppressive Activities of Novel PLA2 Inhibitors from Xenorhabdus hominickii, an Entomopathogenic Bacterium” (Insects, 2020).

Assays:
[1] = tested on: hemocyte phagocytosis of S. exigua; experiment: Phagocytosis assay with FITC-labeled E. coli in L5 larvae; format: in vivo, Spodoptera exigua; settings: for Median Inhibitory Concentration (IC50), Phagocytosis: injected into L5 larvae with FITC-labeled E. coli; for Inhibition of phagocytosis (in words): S. exigua hemocytes
Protocol: For in vivo phagocytosis assay, test chemical (1 µL) and FITC-labeled E. coli (5 µL, 5 × 10^4 cells/µL) were injected to L5 larva. Hemolymph (50 µL) was collected at 15 min after injection and mixed with 50 µL of ice cold ACB. After centrifugation at 700 × g for 3 min at 4 °C, the supernatant plasma was replaced with 100 µL of TC-100 insect cell culture medium (Welgene, Daegu, Korea). Hemocyte suspension (10 µL) was placed onto a slide and over laid with 10 µL glycerol (50%, v/v). Hemocytes undergoing phagocytosis were determined by fluorescence-emitting cells under a fluorescence microscope (Leica, Wetzlar, Germany) at 40× magnification. For in vitro phagocytosis, hemocyte suspension and labeled bacteria mixture (30 µL) were incubated in a dark place for 1 h at room temperature. Hemocytes were then washed three times with PBS by centrifugation at 700× g for 2 min at 4 °C and finally resuspended in TC-100 medium. This hemocyte suspension was observed under the fluorescence microscope in FITC or DIC mode after forming monolayers on glass slides.

[2] = tested on: hemocyte nodule formation; experiment: Nodulation assay after E. coli injection in L5 larvae; format: in vivo, Spodoptera exigua; settings: for Median Inhibitory Concentration (IC50), Nodulation: injected into L5 larvae with E. coli, nodules counted after 8 h
Protocol: To assess nodule formation, immune challenge was performed by injecting 3 µL of Escherichia coli Top10 (10^4 cells/larva) (Invitrogen, Madison, WI, USA) through the abdominal proleg of L5 larvae using a microsyringe (Hamilton, Reno, NV, USA). After incubating at 25 °C for 8 h, test insects were dissected to count the number of melanized nodules under a stereo microscope (Stemi SV11, Zeiss, Jena, Germany) at 50× magnification. For chemical test, 1 µL aliquot of test chemical at different concentrations was injected into each larva along with E. coli. AA was injected at 10 μg per larva. Each treatment was independently replicated five times.

Sf9 cells = experiment: Cytotoxicity test (MTT); format: cell-based; settings: for Cytotoxicity (MIC, minimum inhibitory concentration): MTT, 24 h at 28 °C
Protocol: Cytotoxicity of each secondary metabolite was evaluated by 3-(4,5 dimethylthiazol-2-yl)-2,5-diphenyl tetrazolium bromide (MTT) assay according to the method described by Mollah et al.. with a slight modification. Briefly, Sf9 cells (1.2 × 10^4 cells in 200 μL of TC-100 medium) were seeded into each 96-well. After adding each test chemical (2.5 μL in DMSO), the plate was incubated at 28 °C for 24 h. Control cells were treated with 2.5 μL of DMSO. After 24 h incubation, 10 μL of MTT (5 mg/mL in PBS) was added to each well and cells were cultured for another 4 h at 28 °C. Formazan granules formed in viable cells were dissolved in 50 μL of DMSO. Absorbance was then measured at 540 nm using a microplate reader (Victor Multilabel Plate Reader, PerkinElmer, Waltham, MA, USA).

S. exigua larvae [3] = experiment: Insecticidal activity by injection; format: in vivo, Spodoptera exigua; settings: for Insecticidal Activities, Injection: median lethal dose by Probit analysis, S. exigua larvae
Protocol: All data for continuous variables were subjected to one-way analysis of variance (ANOVA) using PROG GLM in SAS program. Mortality data were subjected to arcsine transformation and used for ANOVA. Means were compared with the least significant difference (LSD) test at Type I error of 0.05. Median toxicity values such as median lethal dose (LD50), median lethal concentration (LC50), median lethal time (LT50), and median inhibition concentrations (IC50) were calculated by Probit analysis using EPA Probit Analysis Program, ver. 1.5 (U.S. Environmental Protection Agency, Washington, DC, USA). […]

secretory PLA2 (sPLA2) = experiment: Secretory PLA2 (sPLA2) activity; format: biochemical, Spodoptera exigua; settings: for Median Inhibitory Concentrations (IC50), sPLA2: S. exigua, synthetic compounds; for Potency for inhibiting sPLA2 (in words): based on IC50 values
Protocol: (§1) To characterize PLA2 inhibition by test chemicals, activities of two different PLA2s [secretory PLA2 (sPLA2) and cytosolic PLA2 (cPLA2)] were assessed with methods described by Vatanparast et al..

S. exigua larvae [4] = experiment: Feeding toxicity, leaf-dipping method; format: in vivo, Spodoptera exigua; settings: for Insecticidal Activities, Feeding: median lethal concentration by Probit analysis, leaf-dipping
Protocol: (§2) For the virulence test of X. hominickii, 24 h-cultured cells (10^8 cfu/mL) were diluted with sterile PBS. After surface sterilization with 95% ethanol, each L5 larva was injected with 1 µL of test compound (1 µg/larva) along with bacterial suspension (10^2 cfu/larva). Injection was performed through the first abdominal proleg using a micro syringe. Injected larvae were incubated at room temperature individually in 9 cm Petri dishes. For oral toxicity assay of B. thuringiensis, a small piece (2 × 2 cm) of Chinese cabbage was dipped in 500 ppm of Bt or a mixture of Bt (500 ppm) with 500 ppm of test chemical for 5 min. After a brief (5 min) drying under a dark condition, the treated leaf was supplied to individual test larva in 9 cm Petri dish for 24 h at room temperature. After 24 h, larvae were fed with fresh cabbage leaves. Each treatment was replicated three times with 10 larvae per replication. […] Larvae were considered dead if they were unable to move in a coordinated manner when prodded with a blunt probe.
All data for continuous variables were subjected to one-way analysis of variance (ANOVA) using PROG GLM in SAS program. Mortality data were subjected to arcsine transformation and used for ANOVA. Means were compared with the least significant difference (LSD) test at Type I error of 0.05. Median toxicity values such as median lethal dose (LD50), median lethal concentration (LC50), median lethal time (LT50), and median inhibition concentrations (IC50) were calculated by Probit analysis using EPA Probit Analysis Program, ver. 1.5 (U.S. Environmental Protection Agency, Washington, DC, USA).
These compounds were also tested for their feeding toxicities using a leaf-dipping method.

[5] = tested on: hemocyte PLA2 of S. exigua; experiment: Nonspecific (total) hemocyte PLA2 activity, pyrene-labeled phospholipid fluorometric assay; format: biochemical, Spodoptera exigua; settings: for Median Inhibitory Concentrations (IC50), Total PLA2: hemocyte extract of S. exigua L5 larvae, synthetic compounds; for Inhibitory activity against hemocyte PLA2 (in words): S. exigua hemocyte PLA2, extracts, fractions or synthetic compounds
Protocol: Hemocyte PLA2 activity was fluorometrically determined with a pyrene-labeled phospholipid substrate using a spectrofluorometer (VICTOR multi-label plate reader, PerkinElmer, Waltham, MA, USA) at excitation and emission wavelengths of 345 and 398 nm, respectively. For measuring PLA2 activity, hemolymph was collected from ~10 L5 larvae. Hemocytes and plasma were separated by centrifugation at 800× g for 3 min at 4 °C. Hemocytes were then homogenized in 500 µL of PBS with a polytron (Ultra-Turrax T8, Ika Laboratory, Funkentshort, Germany). After centrifugation at 14,000× g for 5 min at 4 °C, protein concentration of the supernatant was determined by Bradford assay using bovine serum albumin (BSA) as the standard. The reaction mixture was prepared in a 96-well microplate by adding 129 μL of 50 mM Tris buffer (pH 7.0), 2 μL of 1 M CaCl2, and 2 μL of 10% BSA into each well. A sample solution consisted of 5 μL of test bacterial metabolites and 10 μL of hemocyte enzyme extract ([…]). The plate was then incubated at room temperature for 30 min. Enzyme reaction was then initiated by adding pyrene-labeled PL substrate (2 μL) to the reaction mixture.

cytosolic PLA2 (cPLA2) = experiment: Cytosolic PLA2 (cPLA2) activity; format: biochemical, Spodoptera exigua; settings: for Median Inhibitory Concentrations (IC50), cPLA2: S. exigua, synthetic compounds; for Potency for inhibiting cPLA2 (in words): based on IC50 values
Protocol: as §1

S. exigua larvae [6] = experiment: Effect on pathogenicity of Bacillus thuringiensis (oral, leaf dipping); format: in vivo, Spodoptera exigua; settings: cabbage leaf dipped in Bt 500 ppm mixed with inhibitor 500 ppm; 4 days after treatment
Protocol: as §2

S. exigua larvae [7] = experiment: Effect on pathogenicity of X. hominickii (co-injection); format: in vivo, Spodoptera exigua; settings: L5 larvae injected with Xh 10^2 cfu/larva along with inhibitor (5 µg/larva Fig. 7A; 2 µg/larva Fig. S6); 4 days after treatment
Protocol: as §2, with “After surface sterilization with 95% ethanol, each L5 larva was injected with 1 µL of test compound (1 µg/larva) along with bacterial suspension (10^2 cfu/larva).” left out

| Compound | Reversal of suppressed phagocytosis by AA addition ([1]; AA 10 µg/larva with the eight compounds) | Rescue of suppressed nodule formation by AA addition ([2]; AA 10 µg/larva co-injected with extract, subfraction or compound and E. coli) | Cytotoxicity (MIC, minimum inhibitory concentration) (Sf9 cells) | Insecticidal Activities, Injection (S. exigua larvae [3]) | Median Inhibitory Concentrations (IC50), sPLA2 (secretory PLA2 (sPLA2)) | Potency for inhibiting sPLA2 (in words) (secretory PLA2 (sPLA2)) | Insecticidal Activities, Feeding (S. exigua larvae [4]) | Median Inhibitory Concentration (IC50), Phagocytosis [1] | Median Inhibitory Concentration (IC50), Nodulation [2] | Median Inhibitory Concentrations (IC50), Total PLA2 [5] | Median Inhibitory Concentrations (IC50), cPLA2 (cytosolic PLA2 (cPLA2)) | Inhibition of phagocytosis (in words) [1] | Inhibitory activity against hemocyte PLA2 (in words) [5] | Potency for inhibiting cPLA2 (in words) (cytosolic PLA2 (cPLA2)) | Concentration inducing cytotoxicity (Sf9 cells) | Killing of larvae after injection (in words) (S. exigua larvae [3]; individually injected to S. exigua larvae) | Feeding (oral) toxicity (in words) (S. exigua larvae [4]; leaf-dipping method) | Inhibition of nodule formation (in words) ([2]; S. exigua L5 larvae, E. coli challenge) | Effect on B. thuringiensis insecticidal activity (S. exigua larvae [6]) | Effect on X. hominickii pathogenicity / insecticidal activity (S. exigua larvae [7]) |
| --- | --- | --- | --- | --- | --- | --- | --- | --- | --- | --- | --- | --- | --- | --- | --- | --- | --- | --- | --- | --- |
| CCCCCC=CCC=CCC=CCC=CCCCC(=O)O [AA, 5,8,11,14-eicosatetraenoic acid, reference compound] | reversed | significantly (p < 0.05) rescued | – | – | – | – | – | – | – | – | – | – | – | – | – | – | – | – | – | – |
| CCCCCCCCCCCCCCCCCCCCCC [DS, docosane] | – | – | 1.0 ± 0.03 a µg/mL | 49.54 ± 4.55 a µg/larva | 1.22 ± 0.15 a µg/mL | least potent | 3554.0 ± 100.18 a µg/mL | 8.40 ± 0.68 b ng/larva | 1.11 ± 0.09 b ng/larva | 0.81 ± 0.04 b µg/mL | 0.32 ± 0.02 b µg/mL | – | – | – | – | – | – | – | – | – |
| N#Cc1ccccc1C(=O)O [CBA, o-cyanobenzoic acid] | – | – | 0.50 ± 0.02 c µg/mL | 54.96 ± 4.03 a µg/larva | 1.11 ± 0.11 a µg/mL | least potent | 2850.65 ± 80.68 c µg/mL | 32.50 ± 2.35 a ng/larva | 2.50 ± 0.22 a ng/larva | 0.86 ± 0.02 a µg/mL | 0.38 ± 0.03 a µg/mL | least potent | least potent | least potent | – | – | – | – | – | – |
| CCCCC(CC)CO (stereo not shown) [EH, 2-ethyl-1-hexanol] | – | – | 0.20 ± 0.02 e µg/mL | 29.90 ± 3.05 c µg/larva | 0.05 ± 0.004 f µg/mL | highly potent | 2456.35 ± 50.88 e µg/mL | – | 0.40 ± 0.03 e ng/larva | 0.14 ± 0.01 µg·days/mL | 0.11 ± 0.01 µg·days/mL | – | – | – | – | – | – | – | – | – |
| CCOc1cc(O)ccc1OC [EMP, 3-ethoxy-4-methoxyphenol] | – | – | 0.1 ± 0.01 f µg/mL | 18.95 ± 2.61 d µg/larva | 0.03 ± 0.005 f µg/mL | highly potent | 2100.34 ± 40.19 f µg/mL | 0.20 ± 0.03 g ng/larva | 0.20 ± 0.02 f ng/larva | 0.04 ± 0.02 e µg/mL | 0.05 ± 0.004 ef µg/mL | highly potent | most potent | highly potent | less than 1 µg/mL | most potent | most potent | high potency | significantly (p < 0.05) increased | significantly (p < 0.05) increased |
